The test system of series [1] is β-cells (dispersed rat islet cells). Description: primary islet β-cell replication assay (PDX-1/ki-67 co-staining, automated imaging). The series is classed as cell-based. Particulars: for increase of β-cell replication: 24 h, 5-IT 2 μM, GLP-1 and Ex-4 20 nM and 4 nM, normalized to DMSO; for EC50: Rattus norvegicus. As for the experimental part: Rat islets were isolated as previously described in Gotoh M, Maki T, Kiyoizumi T, Satomi S, Monaco A P: An improved method for isolation of mouse pancreatic islets. Transplantation 40:437-438, 1985, contents of which are herein incorporated by reference in their entirety. Isolated islets were cultured overnight in a tissue culture incubator. The following morning, islets were trypsinized into cellular clusters of 1-3 cells, re-suspended in islet media (Mediatech 99-786-CV; 10% FBS serum (Valley Biomedial BS3033); 8.3 mM Glucose (Sigma G7528); 1× Penicillin/Streptomycin (Invitrogen 15070-063); 1× Glutamax (Invitrogen 35050-079)) and plated into the wells of a 96-well plate (Sigma CLS3904) that had been coated with 804G (a rat bladder carcinoma cell line) conditioned media. The cellular plating density was 60 k cells/well and greater than 95% viability was confirmed at the time of plating. […] For screening, compounds were tested at 1 uM concentration in duplicate. After 24-hours of compound treatment, cells were fixed with fresh 4% PFA (Electron Microscopy Services 15710) for 20 minutes and washed with PBS (VWR 45000-446). Antigen retrieval was performed by heating the cells to 90 degrees Celsius in 0.1 mM EDTA (Ambion AM9260G) in PBS. Cells were then washed and permeabalized with PBS/0.3% Triton X-100 (J.T.Baker X198-07) for 15 minutes. Immunocytochemical staining was then performed as follows. Antigen blocking was performed with 5% normal donkey serum (Jackson ImmunoResearch 017-000-121) in PBS for an hour. Staining was performed by overnight incubation with primary antibody at 4 degrees Celsius. For the primary screen, PDX-1 antibody (R&D AF2419) was used to reveal beta-cells and ki-67 antibody (BD Bioscience 556003) to visualize proliferating cells. Without wishing to be bound by theory, the failure of prior beta-cell replication screens is primarily a consequence of using a cytoplasmic marker (Insulin) as the β-cell identifier. The use of a cytoplasmic marker prevents accurate attribution of nuclear replication to a specific cell identity i.e., in dense culture it is impossible to attribute a cytoplasm to a specific nucleus given the proximity to multiple nuclei. Additional Immunohistochemistry antibodies included Phosphohistone 3 (Millipore 06-570), Insulin (Dako A0564), Glucagon (Millipore 4031-01F) and Vimentin (Millipore ab5733). For western blotting anti-bodies included ADK (Abcam ab38010, ab64825) and RAN (BD Bioscience 610340) as a loading control.
Once compound-treated islet cells were stained, β-cell replication was assessed via automated image acquisition and analysis using a Cellomics ArrayScanVTI. The acquisition thresholds/parameters were established such that the computer-based calls of replication events were consistent with human-based calls. The parameters used were directed at the identification of (1) PDX-1+ cells and (2) ki-67 positive staining within the PDX-1 positive area. The algorithm was a three step process. First the nuclear area was predicted by the software based upon the expected PDX-1 staining pattern. Second PDX-1 positive cells (selected objects) were counted based upon the average staining intensity within the predicted nuclear area (Note: total signal intensity was essentially equal in quality but was not typically used). Third, the number of PDX-1 positive cells (selected objects) that simultaneously were Ki-67 positive was determined by determining the average fluorescence intensity of ki-67 staining within the predicted nuclear area (again, total intensity was also occasionally used with equal efficacy). The specific thresholds (fluorescence intensities) varied from experiment to experiment. In general, the basal replication rate was set at roughly 1% i.e., the algorithm was varied until 1% of DMSO treated PDX+ cells were reported to be double positive for PDX-1 and ki67. […]

The subject of a further series is murine β-cells. The series is described as follows: murine islet β-cell replication (PDX-1/ki-67). The series is classed as cell-based, mouse. The following applies: FIG. 13b top. The method, then: (§1) Rat and mouse islets were isolated as previously described. (M. Gotoh, et al., Transplantation 43, 725-730 (1987)) All animal work was approved and carried out in accordance with our institutional animal care and use committee. Porcine islets were provided by VitaCyte (Indianapolis, Id.). Islets were incubated (37° C., 5% CO2) overnight in islet media (Mediatech 99-786-CV; 10% FBS serum (Valley Biomedial BS3033); 8.3 mM Glucose (Sigma G7528); 1× Penicillin/Streptomycin (Invitrogen 15070-063); 1× Glutamax (Invitrogen 35050-079)). The following morning, islets were trypsinized into cellular clusters of 1-3 cells, re-suspended in islet media and plated into the wells of a 96-well plate (Sigma CLS3904) that had been coated with 804G (a rat bladder carcinoma cell line) conditioned media. The cellular plating density was 60 k cells/well and greater than 95% viability was confirmed at the time of plating. The islet cells were allowed 48-hours to adhere at which time the media was changed (as above, except 2% serum, 5 mM glucose) and the cells were compound treated. For screening, compounds were tested at 1 μM and 10 μM concentrations in duplicate on a single occasion. After 24-hours of compound treatment, cells were fixed with fresh 4% PFA. Antigen retrieval was performed by heating the cells to 90 degrees Celsius in 0.1 M EDTA in distilled water. […]

Another series deals with porcine β-cells. The series is described as follows: porcine islet β-cell replication (PDX-1/ki-67). The series is classed as cell-based. The following applies: FIG. 13b bottom. The method, then:
as §1

The next series deals with islet β-cells. Description: in vivo β-cell replication (BRDU incorporation). Set-up: species or system mouse. The following applies: mice. An excerpt:
24-hours post treatment, animals were sacrificed and the pancreas was fixed, sectioned and stained for PDX-1 and BRDU (Amaersham RPN202). Every fourth section was included in analysis and a minimum of 2000 PDX-1^+ per animal were counted.
(§2) A minority of these cells were not exocrine cells. […] Dividing cells were BRDU^+ (Amaersham RPN202).

Another series relates to exocrine cells. The series is described as follows: in vivo exocrine cell replication (BRDU incorporation). Set-up: species or system mouse. The following applies: mice, 21 mg/kg, 24 h.
Excerpt: as §2

For series [2] the following is noted: compared to 5-IT; Zheng et al. 2001; cited from earlier work.

Entries after “also recorded” stand apart in the source; their conditions may differ. Where two headings read alike, the source gives them in different places.

Turning to `c1cc(-c2cnn3cc(-c4ccc(OCCN5CCCCC5)cc4)cnc23)ccn1` [Cpd C], the “beta-cell replication with A10 relative to the uninhibited controls” value in series [1] (Cpd C 10 μM) is listed as “decrease”.

`Nc1ncnc2c1ncn2[C@@H]1O[C@H](CO)[C@@H](O)[C@H]1O` [adenosine]: in series [1] (rat islets, adenosine 0.05-1000 uM), the “effect on % PDX-1 and Ki-67 expressing cells (β-cell proliferation)” value was “little effect; also recorded: no effect”.

Glucagon-like peptide-1 [GLP-1]: in series [1], the “increase of β-cell replication” value was around 1.5 fold.

Take `Nc1ncnc2c1c(I)cn2[C@H]1CC[C@@H](CO)O1` [7-Iodo-2,3-dideoxy-7-deazadenosine, 7-deaza-7-iodo-2′,3′-dideoxyadenosine]: the “β-cell replication after treatment with additional ADK-Is” value in series [1] (FIG. 17b, 7-Iodo-2,3-dideoxy-7-deazadenosine 20 μM, 10 μM, Aristeromycin 6 μM, 1 μM) is recorded as “increased”.

Turning to Exendin-4 [Ex-4], the “increase of β-cell replication” value in series [1] is on record as around 1.5 fold.

As to `Nc1ncnc2nc(-c3ccc(N4CCOCC4)nc3)cc(-c3cccc(Br)c3)c12` [ABT-702, 5-(3-bromophenyl)-7-(6-morpholinopyridin-3-yl)pyrido[2,3-d]pyrimidin-4-amine], in series [1] (A10 0.019-10 uM, B8 0.23-30 uM), the “% of Ki-67 positive β-cells (PDX-1 and Ki-67 positive cells), dose curve” value is on record as “increased in a dose dependent manner”. For the same compound, the EC50 in series [1] (FIG. 13c dose-response curves, read-out: EC50, β-cell proliferation in rat islet cultures) stood at 7 µM; in series [1] (dose curves FIG. 2a (A10) and FIG. 3 (B8), Ki-67 positive β-cells, read-out: EC50 for β-cell proliferation), 9.1 µM. For the same compound, the “induction of β-cell replication, murine islet cells” value in the series with murine β-cells is reported as “induction of β-cell replication similar to that observed for rat islet cells”. For the same compound, in the series on porcine β-cells, the “induction of β-cell replication, porcine islet cells” value is “induction of β-cell replication similar to that observed for rat islet cells”. Further, the “in vivo β-cell replication rate, β-cells identified by insulin immunostaining” value with islet β-cells (separate cohort, FIG. 20) is on record as “increases”. In the series on islet β-cells (single intraperitoneal injection, 21 mg/kg, 24 h), the “increase in BRDU incorporation by β-cells in vivo (PDX-1 identified)” value was found to be 2 fold. Besides, in the series with exocrine cells, the “in vivo replication rate of exocrine cells” value is listed as “did not increase”. For the same compound, in series [2], the half-life result was “longer half-life compared to 5-IT”.

With `NC(=O)c1ncn([C@@H]2O[C@H](CO)[C@@H](O)[C@H]2O)c1N` [AICAR, 5-aminoimidazole-4-carboxamide ribonucleoside], the “% β-cell replication” value in series [1] (AICAR 3.3 μM) is recorded as “increase”.

Values taken from patent publication US20130023491A1, “BETA-CELL REPLICATION PROMOTING COMPOUNDS AND METHODS OF THEIR USE” (President and Fellows of Harvard College, priority 2009, published 2013).
